Results from ChEMBL document CHEMBL4428084, “Discovery and Optimization of N-(4-(3-Aminophenyl)thiazol-2-yl)acetamide as a Novel Scaffold Active against Sensitive and Resistant Cancer Cells” (J Med Chem, 2016).
Active and inactive are the calls of the source. The rule behind the calls is not given here.

What was measured:
A-375 [1] = experiment: Cytotoxicity against vemurafenib-sensitive human A375 cells assessed as cell viability at 10 uM after 48 hrs by trypan blue exclusion assay relative to control; assay type: functional; settings: A-375, 48 h, read-out: Activity
A-375 [2] = experiment: Cytotoxicity against vemurafenib-sensitive human A375 cells assessed as cell viability at 5 uM after 48 hrs by trypan blue exclusion assay relative to control; assay type: functional; settings: A-375, 48 h, read-out: Activity
[3] = Cytotoxicity against vemurafenib-resistant human A375 R5C3 cells assessed as cell viability at 10 uM after 48 hrs by trypan blue exclusion assay relative to control; assay type: functional; settings: A-375, 48 h, read-out: Activity
[4] = Cytotoxicity against vemurafenib-resistant human A375 R5C3 cells assessed as cell viability at 1 uM after 48 hrs by trypan blue exclusion assay relative to control; assay type: functional; settings: A-375, 48 h, read-out: Activity
[5] = Cytotoxicity against vemurafenib-resistant human A375 RIV cells assessed as cell viability at 10 uM after 48 hrs by trypan blue exclusion assay relative to control; assay type: functional; settings: A-375, 48 h, read-out: Activity
[6] = Cytotoxicity against vemurafenib-resistant human A375 RIV cells assessed as cell viability at 1 uM after 48 hrs by trypan blue exclusion assay relative to control; assay type: functional; settings: A-375, 48 h, read-out: Activity
[7] = Cytotoxicity against vemurafenib-resistant human A375 RIV cells assessed as cell viability at 5 uM after 48 hrs by trypan blue exclusion assay relative to control; assay type: functional; settings: A-375, 48 h, read-out: Activity
K562 [8] = experiment: Cytotoxicity against imatinib-sensitive human K562 cells assessed as cell viability at 10 uM after 48 hrs by trypan blue exclusion assay relative to control; assay type: functional; settings: K562, 48 h, read-out: Activity
K562 [9] = experiment: Cytotoxicity against imatinib-resistant human K562 cells assessed as cell viability at 10 uM after 48 hrs by trypan blue exclusion assay relative to control; assay type: functional; settings: K562, 48 h, read-out: Activity
BXPC-3 [10] = experiment: Cytotoxicity against gemcitabine-sensitive human BxPC3 cells assessed as cell viability at 10 uM after 48 hrs by trypan blue exclusion assay relative to control; assay type: functional; settings: BXPC-3, 48 h, read-out: Activity
MIA PaCa-2 [11] = experiment: Cytotoxicity against gemcitabine-resistant human MIAPaCa2 cells assessed as cell viability at 10 uM after 48 hrs by trypan blue exclusion assay relative to control; assay type: functional; settings: MIA PaCa-2, 48 h, read-out: Activity
A-375 [12] = experiment: Cytotoxicity against vemurafenib-sensitive human A375 cells assessed as reduction in cell viability after 48 hrs by trypan blue exclusion assay; assay type: functional, cell-based; settings: A-375, 48 h
[13] = Cytotoxicity against vemurafenib-resistant human A375 RIV cells assessed as reduction in cell viability after 48 hrs by trypan blue exclusion assay; assay type: functional, cell-based; settings: A-375, 48 h
[14] = Cytotoxicity against vemurafenib-resistant human A375 R5C3 cells assessed as reduction in cell viability after 48 hrs by trypan blue exclusion assay; assay type: functional, cell-based; settings: A-375, 48 h
K562 [15] = experiment: Cytotoxicity against imatinib-sensitive human K562 cells assessed as reduction in cell viability after 48 hrs by trypan blue exclusion assay; assay type: functional, cell-based; settings: K562, 48 h
K562 [16] = experiment: Cytotoxicity against imatinib-resistant human K562 cells assessed as reduction in cell viability after 48 hrs by trypan blue exclusion assay; assay type: functional, cell-based; settings: K562, 48 h
BXPC-3 [17] = experiment: Cytotoxicity against gemcitabine-sensitive human BxPC3 cells assessed as reduction in cell viability after 48 hrs by trypan blue exclusion assay; assay type: functional, cell-based; settings: BXPC-3, 48 h
MIA PaCa-2 [18] = experiment: Cytotoxicity against gemcitabine-resistant human MIAPaCa2 cells assessed as reduction in cell viability after 48 hrs by trypan blue exclusion assay; assay type: functional, cell-based; settings: MIA PaCa-2, 48 h
[19] = Cytotoxicity against human keratinocytes assessed as cell viability at 5 uM after 48 hrs by trypan blue exclusion assay relative to control; assay type: cell-based, Keratinocyte; settings: read-out: Activity
[20] = Cytotoxicity against human fibroblasts assessed as cell viability at 5 uM after 48 hrs by trypan blue exclusion assay relative to control; assay type: cell-based, Fibroblast; settings: read-out: Activity
[21] = Cytotoxicity against human keratinocytes assessed as cell viability at 10 uM after 48 hrs by trypan blue exclusion assay relative to control; assay type: cell-based, Keratinocyte; settings: read-out: Activity
[22] = Cytotoxicity against human fibroblasts assessed as cell viability at 10 uM after 48 hrs by trypan blue exclusion assay relative to control; assay type: cell-based, Fibroblast; settings: read-out: Activity
A-375 [23] = experiment: Inhibition of colony formation in human A375 cells at 5 uM after 10 days by crystal violet staining based assay relative to control; assay type: functional; settings: A-375, 240 h
A-375 [24] = experiment: Inhibition of colony formation in human A375 cells at 10 uM after 10 days by crystal violet staining based assay relative to control; assay type: functional; settings: A-375, 240 h
A-375 [25] = experiment: Inhibition of colony formation in human A375 cells after 10 days by crystal violet staining based assay; assay type: functional, cell-based
A-375 [26] = experiment: Induction of apoptosis in human A375 cells assessed as cells with active caspase-3 at 10 uM after 48 hrs by flow cytometry (reference value: 4.16%); assay type: functional
A-375 [27] = experiment: Induction of apoptosis in human A375 cells assessed as increase in cleaved PARP expression at 10 uM after 24 hrs by Western blot analysis; assay type: functional, cell-based
A-375 [28] = experiment: Induction of autophagy in human A375 cells assessed as increase in LC3-1 to LC3-2 conversion at 10 uM after 24 hrs by Western blot analysis; assay type: functional, cell-based
A-375 [29] = experiment: Induction of autophagy in human A375 cells assessed as increase in LC3-2 expression at 10 uM after 12 hrs by Hoechst staining based immunofluorescence method; assay type: functional, cell-based
A-375 [30] = experiment: Induction of apoptosis in human A375 cells assessed as increase in cleaved PARP expression at 10 uM after 48 hrs in presence of pan-caspase inhibitor QVD by Western blot analysis; assay type: functional, cell-based
A-375 [31] = experiment: Induction of autophagy in human A375 cells assessed as increase in LC3B-2 expression at 10 uM after 48 hrs in presence of LC3 siRNA by Western blot analysis; assay type: functional, cell-based
A-375 [32] = experiment: Cytotoxicity against human A375 cells assessed as reduction in cell viability at 10 uM after 48 hrs in presence of pan-caspase inhibitor QVD/LC3 siRNA by trypan blue exclusion assay; assay type: functional, cell-based
[33] = Half life in mouse liver microsomes at 37 degC; assay type: ADME, Microsome
[34] = Terminal half life in mouse at 1 mg/kg, iv; assay type: ADME, organism-based; settings: in vivo, read-out: beta t1/2
[35] = Total clearance in mouse at 1 mg/kg, iv measured 2 hrs post dose; assay type: ADME, organism-based; settings: in vivo
[36] = Volume of distribution in mouse at 1 mg/kg, iv measured 2 hrs post dose; assay type: ADME, organism-based; settings: in vivo
[37] = AUC (0 to 2 hrs) in mouse at 1 mg/kg, iv; assay type: ADME, organism-based; set-up: dose 1 mg/kg, time < 2 hr, route intravenous; settings: in vivo
[38] = Toxicity in mouse assessed as behavioral modification at 1 mg/kg, iv; assay type: organism-based; settings: in vivo
A-375 [39] = experiment: Antitumor activity against human A375 cells xenografted in immuno-deficient nude Balb/c mouse assessed as tumor growth inhibition at 0.7 mg/kg/day, ip measured on day 31 post treatment; assay type: functional, organism-based
[40] = Toxicity in nude Balb/c mouse xenografted with human A375 cells assessed as behavioral modification at 0.7 mg/kg/day, ip; assay type: organism-based; settings: in vivo
[41] = Toxicity in nude Balb/c mouse xenografted with human A375 cells assessed as effect on body mass at 0.7 mg/kg/day, ip; assay type: organism-based; settings: in vivo
[42] = Toxicity in nude Balb/c mouse xenografted with human A375 cells assessed as diet disturbance at 0.7 mg/kg/day, ip; assay type: organism-based; settings: in vivo
A-375 [43] = experiment: Induction of apoptosis in human A375 cells xenografted in immuno-deficient nude Balb/c mouse assessed as increase in cleaved PARP expression in tumor at 0.7 mg/kg/day, ip measured on day 31 post treatment by Western blot analysis; assay type: functional, organism-based
A-375 [44] = experiment: Induction of autophagy in human A375 cells xenografted in immuno-deficient nude Balb/c mouse assessed as increase in LC3-2 expression in tumor at 0.7 mg/kg/day, ip measured on day 31 post treatment by Western blot analysis; assay type: functional, organism-based
A-375 [45] = experiment: Inhibition of colony formation in human A375 cells assessed as induction of less dense colony level at 5 and 10 uM after 10 days by crystal violet staining based assay relative to control; assay type: functional, cell-based

With `CCCCCCC#Cc1ccc(S(=O)(=O)Nc2cccc(-c3csc(NC(C)=O)n3)c2)cc1` the viability at 10 µM (A-375 [1]) was < 1%, the viability at 5 µM (A-375 [2]) was < 1% and the viability at 10 µM [3] was < 1%. The viability at 1 µM [4] was 83%, the viability at 10 µM [5] was < 1% and the viability at 1 µM [6] was 12%. The viability at 5 µM [7] was 0.3%, the viability at 10 µM (K562 [8]) was 0.6% and the viability at 10 µM (K562 [9]) was 3.4%. The viability at 10 µM (BXPC-3 [10]) was < 1%, the viability at 10 µM (MIA PaCa-2 [11]) was < 1% and the EC50 (A-375 [12]) was 560 nM. For the same compound, the EC50 [13] was 480 nM, the EC50 [14] was 1320 nM and the EC50 (K562 [15]) was 1420 nM. For the same compound, the EC50 (K562 [16]) was 1620 nM, the EC50 (BXPC-3 [17]) was 380 nM and the EC50 (MIA PaCa-2 [18]) was 640 nM. It also gave a viability at 48 h, 5 µM [19] of 91.2%, a viability at 48 h, 5 µM [20] of 91.5% and a viability at 48 h, 10 µM [21] of 93.4%. It also gave a viability at 48 h, 10 µM [22] of 85.1%, an inhibition at 5 µM (A-375 [23]) of 77% and an inhibition at 10 µM (A-375 [24]) of 94%. The inhibition (A-375 [25]) was “Dose-dependent effect”, the Activity (A-375 [26]) was 48 - 48.4% and the Activity (A-375 [27]) was “Active”. The Activity (A-375 [28]) was “Active”, the Activity (A-375 [29]) was “Active” and the Activity (A-375 [30]) was “inactive”. For the same compound, the Activity (A-375 [31]) was “inactive”, the Activity (A-375 [32]) was “inactive” and the half-life [33] was > 45 min. The half-life [34] was 47 min, the clearance [35] was 43 mL/min/kg and the Vd [36] was 2.91 L/kg. The AUC(0-t) at 2 h [37] was 389 ng·h/mL, the Activity [38] was “Non-Toxic” and the TGI (A-375 [39]) was “Active”. For the same compound, the Activity [40] was “Non-Toxic”, the Activity [41] was “Non-Toxic” and the Activity [42] was “Non-Toxic”. The Activity (A-375 [43]) was “Active”, the Activity (A-375 [44]) was “Active” and the inhibition (A-375 [45]) was “Active”.
